# According to a melting point compilation (Tetko et al.):
row,melting point,Compound
1,30 to 32 °C,C#CC(C)(C)Oc1ccc(C#N)cc1
2,45 °C,CC(C)CC1c2ccccc2-c2ccccc21
3,94 °C,C=Cc1ccccc1C(=O)O
4,107 °C,C=C(C)CNc1ccc(C(C)C(=O)O)cc1 (stereo not drawn)
5,46.5 °C,CC1c2ccccc2-c2ccccc21
6,159 °C,COC(=O)C=Cc1ccc(C=CC(=O)OC)c(N)c1
7,206 °C,O=C1COc2cccnc2N1
8,114 °C,CSc1nc(Cl)c(-c2ccccc2)c(Cl)n1
9,80 to 82 °C,O=C(Cl)c1ccc(Oc2ccccc2)nc1
10,75 to 78 °C,NCc1ccc(-n2cccn2)cc1
11,68 °C,O=S(=O)(Cl)c1cccc2ccccc12
12,240 °C,COc1cc(O)c2c(=O)c(-c3ccc(O)cc3)coc2c1
13,194 °C,CC(=O)N(c1onc(C)c1C)S(=O)(=O)c1ccc(N)cc1
14,173 °C,O=C(CBr)c1ccc(C(=O)CBr)cc1
15,125 to 126 °C,Clc1ncnc2ccsc12
16,125 to 126 °C,Cn1nnc2cc(C(=O)Cl)ccc21
17,92 to 96 °C,c1ccc2sc(Cc3nc4ccccc4s3)nc2c1
18,100 to 102 °C,CC(C)CC1(NC(=O)c2ccccc2)COCOC1=O (racemic)
19,196 °C,CC(=O)c1ccc(OC2OC(CO)C(O)C(O)C2O)cc1 (stereo not drawn)
20,191 °C,COc1ccc(-c2cc(=O)c3c(O)c(OC)c(OC)cc3o2)cc1O
21,117 to 119 °C,CCCc1ccc(C(=O)CCC(=O)O)cc1
22,158 °C,COc1ccc(/N=N/c2sc(CC#N)nc2C)cc1
23,290 °C,Nc1nn2c(C(F)(F)F)cc(=O)[nH]c2c1/N=N/c1cccc2ccccc12
24,177 °C,COc1ccc2c(OC)c3ccoc3nc2c1OC
25,195 to 197 °C,COc1cc2c(cc1OC)C(c1ccccc1)N(C(C)=O)CC2 (stereo not drawn)

row,melting point,Compound
1,182 °C,O=C(c1ccccc1)C(c1ccccc1)(c1ccccc1)c1ccccc1
2,-25 °C,Cc1ccc(C)c([N+](=O)[O-])c1
3,139 to 141 °C,OC1(c2ccc(Cl)cc2)CCNCC1
4,176 °C,Cc1ccc(C(=O)C2=NN(c3ccccc3)C3C(=O)N(c4cccc([N+](=O)[O-])c4)C(=O)C23)cc1 (stereo not drawn)
5,162 to 163 °C,Cc1c(C(=O)O)[nH]c2ccccc12
6,268 to 269 °C,C/C(=N\c1ccccc1O)c1c(O)c2ccccc2n(-c2ccccc2)c1=O
7,40 to 42 °C,CSc1ccc(I)cc1
8,117 to 122 °C,Cc1ccc([N+](=O)[O-])c(N)c1C
9,252 °C,Cc1c(Cl)cc(-c2ccc(=O)[nH]n2)cc1Cl
10,37 °C,Cc1ccc(O)c(F)c1F
11,88 °C,Cc1ccc(S(C)(=O)=O)cc1
12,197 °C,BrCc1c(CBr)c(CBr)c2ccccc2c1CBr
13,186 °C,O=C1C(c2ccccc2)=[N+]([O-])c2ccccc21
14,167 °C,Ic1ccc(N(c2ccc(I)cc2)c2ccc(I)cc2)cc1
15,64 to 65 °C,O=C1CCSc2ccc(Cl)cc21
16,102 to 104 °C,Nc1ccc(N2CCOCC2)c(Cl)c1
17,98 to 99 °C,O=C(Cl)c1cccc2c1OCCO2
18,229 °C,N#CC(=Cc1cccnc1)C1N=c2ccccc2=N1
19,111 to 113 °C,Cc1nc(-c2ccccc2)sc1C=O
20,116 °C,CN(C)CCN1C(=O)c2ccccc2N(C)c2ccccc21
21,52 °C,Brc1ccc2c3c(cccc13)CC2
22,71 to 73 °C,COc1ccc(OCc2ccccc2)cc1
23,196 to 197 °C,N#Cc1cc(-c2ccccc2)oc1N
24,208 °C,CC(Cc1ccc(O)c(O)c1)(NN)C(=O)O (stereo not drawn)
25,203 °C,Nc1ccc(C2(c3ccc(N)cc3)OC(=O)c3ccccc32)cc1

row,melting point,Compound
1,204 to 208 °C,O=C(N[C@@H]1CCCC[C@@H]1C(=O)O)c1ccccc1
2,90 °C,CN(C)CCOC1=Cc2ccccc2Sc2ccc(Cl)cc21
3,93 to 94 °C,O=Cc1ccc(OCc2ccccc2)c(Cl)c1
4,222 °C,O=C(O)c1cc2sccc2s1
5,167 to 171 °C,CN(C)c1ccc(N=Nc2ccc(N=C=S)cc2)cc1
6,208 °C,CC1=C(C(=O)OC(C)(C)C)C(c2ccco2)NC(=O)N1 (stereo not drawn)
7,43.8 °C,Clc1ccc2ncccc2c1
8,152 °C,Nc1ccc(C(=O)NCCC(=O)O)cc1
9,45 to 46.5 °C,CC(=O)CC(=O)OCc1ccc([N+](=O)[O-])cc1
10,144 to 146 °C,O=[N+]([O-])c1ccc(-c2ccc([N+](=O)[O-])cc2Cl)cc1
11,141 °C,O=c1ccoc2ccc(Br)cc12
12,115 °C,CN(C)CCCN1c2ccccc2S(=O)c2ccc(Cl)cc21 (stereo not drawn)
13,78 °C,OCc1cc(Cl)ccc1Cl
14,44.5 °C,OCc1ccc(F)cc1Cl
15,46.3 °C,c1ccc(C2CCc3ccccc3O2)cc1 (stereo not drawn)
16,284 to 286 °C,O=C(O)c1c[nH]c(=O)c(Cl)c1
17,-35 °C,C=Cc1cc(C)ccc1C
18,39 °C,COC(=O)c1cc(Cl)ccc1Br
19,49 °C,COc1ccc(O)c(C(C)=O)c1
20,69 °C,c1ccc(SCCSc2ccccc2)cc1
21,137 to 138 °C,CCOC(=O)C(ON=C(c1cc2ccccc2o1)c1cc2ccccc2o1)C(=O)OCC
22,71 to 72 °C,COc1ccc(C=O)c(Cl)c1OC
23,108 to 110 °C,CCOC(=O)c1csc(-c2cccc(Cl)c2Cl)n1
24,83 °C,COc1cc(C)c2c(c1)CC2=O
25,210 to 213 °C,NC(=S)Nc1ccc(Cl)c(Cl)c1

# Continued, molecule first:
row,Compound,melting point
1,O=C(OC(=O)C(=Cc1ccccc1)Cc1ccccc1)C(=Cc1ccccc1)Cc1ccccc1,107 to 109 °C
2,O=[N+]([O-])c1cc(-c2ccccc2)ccc1O,67 °C
3,O=c1ccn(C2OC(CO)C(O)C2O)c(=O)[nH]1 (stereo not drawn),168 °C
4,O=C1CCC(C(=O)O)=NN1,199 to 200 °C
5,COc1cc2c(cc1O)CCNC2C (stereo not drawn),222 °C
6,CC1=CC(C)N=N1 (stereo not drawn),108 °C
7,CC(C)=NNC(=O)c1cc(C)on1,244 to 246 °C
8,CSCC(=O)O,14 °C
9,CCOc1ccc2c3c1OC1C(O)C=CC4C(C2)N(C)CCC341 (stereo not drawn),200 °C
10,O=C(O)C1OC(OCC(Cl)(Cl)Cl)C(O)C(O)C1O (stereo not drawn),142 °C
11,CC1=C[C@H](O)[C@H]2C[C@@H]1C2(C)C,70.8 °C
12,CCCCC(C(=O)O)C(=O)N(Nc1ccccc1)c1ccccc1 (stereo not drawn),116 °C
13,O=C(OCC1OC(O)(COC(=O)c2cccnc2)C(OC(=O)c2cccnc2)C1OC(=O)c1cccnc1)c1cccnc1 (stereo not drawn),141 °C
14,Cc1nc([N+](=O)[O-])cn1C(C)C,86 °C
15,Fc1cccc(Cl)c1C(Cl)(Cl)Cl,38 to 43 °C
16,CCC(N)CO (stereo not drawn),-2 °C
17,CC(C)OC(=O)[C@H](C)O,1 °C
18,O=S(=O)(O)NC1CCCCC1,170 °C
19,Cc1c(N/N=C2/C(=O)N(c3ccccc3)N=C2C(F)(F)F)c(=O)n(-c2ccccc2)n1C,185 °C
20,CCCCCCCOC(=O)CCCCCC,-33 °C

row,Compound,melting point
1,CC(C)(C)OOC(C)(C)C,-30 °C
2,C12C3C4C1C1C2C3C41 (stereo not drawn),126 °C
3,CCC1CC(O)CC(C)(C)N1O (stereo not drawn),69 to 73 °C
4,CC(O)=NNC(N)=O,165 °C
5,Cc1oncc1I,27 to 28 °C
6,CC(=O)OC1CCCCC1,-65 °C
7,CC(=O)Cc1ccccc1,-15 °C
8,CCCCCC(C)=O,-35 °C
9,COC(=O)c1nccnc1N,171 °C
10,CC=CC=CCCCCCCCO,32 °C
11,BrCc1ccc2nonc2c1,77 to 80 °C
12,CNC(=O)Oc1cc(C)c(N(C)C)c(C)c1,85 °C
13,CC(C)(N)C(=O)O,335 °C
14,CCOC1OC2C(CO)OC(n3cnc4c(N)ncnc43)C2O1 (stereo not drawn),228 to 231 °C
15,CCn1c(C)nc([N+](=O)[O-])c1I,210 to 212 °C
16,CSc1ncc(Cl)c(C(=O)O)n1,200 °C
17,CC(CCC(=O)O)C1CCC2C3C(=O)CC4CC(=O)CCC4(C)C3CC(=O)C12C (stereo not drawn),237 °C
18,Cn1nnc2c1ccc(=O)n2C1OC(CO)C(O)C1O (stereo not drawn),211 °C
19,CC(C)C(Nc1ccc(C(F)(F)F)cc1Cl)C(=O)OC(C#N)c1cccc(Oc2ccccc2)c1 (stereo not drawn),25 °C
20,CCOC(=O)/C(C#N)=C(/SC)N(C)C,90 to 94 °C

row,Compound,melting point
1,O=Cc1c([N+](=O)[O-])cccc1[N+](=O)[O-],119 °C
2,C=C1C(C)CCC2(C)C3=C(C(=O)C4(CC4C)C(O)C3=O)C(O)C(O)C12 (stereo not drawn),194 °C
3,COc1cc(C(C)=O)cc(OC)c1O,123 to 128 °C
4,O=C(Nc1ccccc1)OC1CCCCC(OC(=O)Nc2ccccc2)C1 (stereo not drawn),170 °C
5,CC1(C)OC(c2ccco2)CN1C(=O)C(Cl)Cl (stereo not drawn),97 °C
6,N#CC(N)C(N)=O (stereo not drawn),120 to 124 °C
7,N#Cc1ccc(OC2CCOCC2)nc1,134 to 135 °C
8,CN(C)c1ccc(N=O)cc1,92.5 °C
9,COC(=O)[C@H](CSSC[C@@H](C(=O)OC)N1C(=O)[C@@H]2[C@H](C1=O)[C@@H]1C=C[C@H]2C1)N1C(=O)[C@@H]2[C@H](C1=O)[C@@H]1C=C[C@H]2C1,100 °C
10,COC(=O)c1cnc(SC)n1C,53 to 55 °C
11,Cn1cc(-c2ccccc2)c(=O)c(-c2cccc(C(F)(F)F)c2)c1,154 °C
12,CCCCCCC(C)CCC (stereo not drawn),-77.5 °C
13,CN(CC(=O)O)C(=N)N,255 °C
14,Cc1cc(N)on1,83 °C
15,CCCC(C)CCC,-121 °C
16,Sc1nc(S)nc(S)n1,300 °C
17,O=C(O)Cc1ccc2c(c1)OCO2,128 to 132 °C
18,CC(O)(P(=O)(O)O)P(=O)(O)O,199 °C
